Experiments:
Assay in all cases: relative viability (nuclei count vs DMSO), 5 days (fraction); higher = more cells survive
[1] = compound: CCOc1cc2ncc(C#N)c(Nc3ccc(OCc4ccccn4)c(Cl)c3)c2cc1NC(=O)/C=C/CN(C)C [Neratinib] + Cc1nc(NC(=O)N2CCC[C@H]2C(N)=O)sc1-c1ccnc(C(C)(C)C(F)(F)F)c1 [Alpelisib] (partner 2 µM)
Procedure, shortened: (§1)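 Relative viability is defined as nuclei in treated wells over nuclei in vehicle wells. Duplicate plates were run and medians reported. Lung cancer cell lines in 1536-well plates were dosed by pin tool one day after seeding, with one drug or with a fixed anchor-drug dose plus five library-drug doses (not always all listed) in √10 steps, and nuclei were counted after 5 days.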

[2] = compound: CCOc1cc2ncc(C#N)c(Nc3ccc(OCc4ccccn4)c(Cl)c3)c2cc1NC(=O)/C=C/CN(C)C [Neratinib] + O=C(c1cc(Cc2n[nH]c(=O)c3ccccc23)ccc1F)N1CCN(C(=O)C2CC2)CC1 [Olaparib] (partner 8 µM)
Procedure, shortened: as §1

[3] = compound: CCOc1cc2ncc(C#N)c(Nc3ccc(OCc4ccccn4)c(Cl)c3)c2cc1NC(=O)/C=C/CN(C)C [Neratinib] + Nc1nc2[nH]cc(CCc3ccc(C(=O)N[C@@H](CCC(=O)O)C(=O)O)cc3)c2c(=O)[nH]1 [Pemetrexed] (partner 0.2 µM)
Procedure, shortened: as §1

[4] = compound: CCOc1cc2ncc(C#N)c(Nc3ccc(OCc4ccccn4)c(Cl)c3)c2cc1NC(=O)/C=C/CN(C)C [Neratinib] + COc1cc2c(Oc3ccc(NC(=O)C4(C(=O)Nc5ccc(F)cc5)CC4)cc3F)ccnc2cc1OCCCN1CCOCC1 [Foretinib] (partner 0.25 µM)
Procedure, shortened: as §1

Cell Line	relative viability ([1]; first compound 0.01 µM)	relative viability ([1]; first compound 0.1 µM)	relative viability ([1]; first compound 0.3162 µM)	relative viability ([1]; first compound 1 µM)	relative viability ([2]; first compound 0.01 µM)	relative viability ([2]; first compound 0.03162 µM)	relative viability ([2]; first compound 0.1 µM)	relative viability ([2]; first compound 0.3162 µM)	relative viability ([2]; first compound 1 µM)	relative viability ([3]; first compound 0.01 µM)	relative viability ([3]; first compound 0.03162 µM)	relative viability ([3]; first compound 0.1 µM)	relative viability ([3]; first compound 0.3162 µM)	relative viability ([3]; first compound 1 µM)	relative viability ([4]; first compound 0.01 µM)	relative viability ([4]; first compound 0.03162 µM)	relative viability ([4]; first compound 0.1 µM)	relative viability ([4]; first compound 0.3162 µM)	relative viability ([4]; first compound 1 µM)	relative viability ([1]; first compound 0.03162 µM)
H3255	0.706	0.468	0.171	0.107	0.58	0.571	0.463	0.264	0.214	0.556	0.568	0.469	0.332	0.226	0.976	0.425	0.716	0.334	0.17	
EPLC-272H	0.962	0.699	0.71	0.352	0.645	0.643	0.558	0.512	0.253	0.27	0.356	0.262	0.281	0.233		0.431	0.45	0.419	0.194	0.87
SW 1573	0.94	0.591	0.577	0.515	0.634	0.444	0.374	0.391	0.287		0.878	0.651	0.799	0.475	1.15	0.894	0.941	0.97	0.722	
NCI-H1793	0.708	0.472	0.519	0.296	1	0.855	0.551	0.345	0.217	0.92	0.778	0.637	0.666	0.414	0.723		0.408	0.338	0.32	0.664
EKVX	0.878	0.645	0.284	0.161	0.86		0.624	0.341	0.203	0.413	0.421	0.288	0.232	0.167	0.697	0.952	0.578	0.567	0.193	0.973
ChaGo-K-1					0.412	0.469	0.331	0.392	0.401	0.247	0.274	0.248	0.429	0.233	0.945	1.07	0.884	0.888	0.718	
NCI-H2347	1.1	1.02	0.935	0.9		0.59	0.545	0.564	0.455	0.423	0.479	0.396	0.495	0.449	0.686	0.909		0.586	0.711	1.11
EMC-BAC-2	0.774	0.667	0.576	0.301	0.521	0.481	0.501	0.528	0.45	0.473	0.495	0.435	0.451	0.475	1.19	0.99	0.669		0.54	
LOU-NH91	0.628	0.507	0.447	0.475	0.977	0.944		0.678	0.632	0.383	0.439	0.426	0.43	0.424	0.971	0.82	0.644	0.542	0.504	0.598
LU99A	0.66	0.483	0.323	0.259	0.251	0.286	0.246	0.268		0.185	0.194	0.155	0.21	0.188	0.959		0.73	0.462	0.376	0.625
NCI-H1395	1.07	1.06	1.07	0.729		0.491	0.449	0.469	0.413	1.01	0.982	0.862	0.877	0.614	0.919	1.03		1.02	0.668	1.17
NCI-H520	0.955	0.905	0.819	0.547	0.303	0.321		0.349	0.194	0.631	0.735		0.505		0.96		0.61		0.394	1.14
201T	1.06	0.926	1.01	0.9	0.811	0.813	0.737	0.782	0.838	0.358	0.373	0.316	0.35	0.324	1.06	1.12	0.797	0.995		0.945
NCI-H1944	0.948	0.615	0.561	0.393	0.45	0.406	0.229	0.352	0.319	0.642	0.563		0.555	0.439	0.878	0.929		0.599	0.327	0.782
NCI-H3122	0.951	0.586	0.829	0.299	0.609	0.699	0.571	0.617	0.587	0.197	0.214	0.179	0.551	0.187	1.05	0.985	0.94	0.958	0.171	0.746
NCI-H1703	0.36	0.279	0.205	0.165	0.536	0.486	0.402	0.218	0.162						0.447	0.318	0.356	0.327	0.218	0.354
NCI-H1755	0.947	0.899	0.946	0.409	0.925	0.922	0.807	0.918	0.824	0.496	0.496	0.379	0.563	0.417	0.876	0.988		0.972	0.745	1.04
NCI-H2126	0.829	0.724	0.679	0.382	0.958	0.891	0.815	0.871	0.492	0.659	0.638	0.623	0.616	0.404	1.37	1.36	1.13	1.09	0.536	0.723
NCI-H23	0.832	0.653	0.686	0.329	0.283	0.284	0.317	0.328	0.314	0.702	0.641	0.619	0.664	0.499		0.686		0.942	0.463	0.716

Cell Line	relative viability ([1]; first compound 0.01 µM)	relative viability ([1]; first compound 0.1 µM)	relative viability ([1]; first compound 0.3162 µM)	relative viability ([1]; first compound 1 µM)	relative viability ([2]; first compound 0.01 µM)	relative viability ([2]; first compound 0.03162 µM)	relative viability ([2]; first compound 0.1 µM)	relative viability ([2]; first compound 0.3162 µM)	relative viability ([2]; first compound 1 µM)	relative viability ([3]; first compound 0.01 µM)	relative viability ([3]; first compound 0.03162 µM)	relative viability ([3]; first compound 0.1 µM)	relative viability ([3]; first compound 0.3162 µM)	relative viability ([3]; first compound 1 µM)	relative viability ([4]; first compound 0.01 µM)	relative viability ([4]; first compound 0.03162 µM)	relative viability ([4]; first compound 0.1 µM)	relative viability ([4]; first compound 0.3162 µM)	relative viability ([4]; first compound 1 µM)	relative viability ([1]; first compound 0.03162 µM)
PC-3 [JPC-3]	1.07	1.02	0.918	0.316		1.29	0.964	0.81	0.424	1.44	1.32	1.07	0.564	0.43	1.07	1.14	0.927	0.815	0.318	1.07
NCI-H838	1.05	0.94	0.832	0.344	0.762	0.785	0.798	0.649	0.399	0.247	0.268	0.242	0.239	0.243	1.12	1.08	0.885		0.656	1.16
NCI-H650	1.13	0.999		0.85	0.39	0.434	0.372	0.318	0.392	0.98	1.11	0.932	0.831	0.773	1.1	1.03	0.952	0.873	0.884	1.32
EBC-1	0.912	0.795	0.754	0.517	0.774	0.668	0.669	0.695	0.544						0.102	0.0886	0.111	0.113	0.0982	0.958
PC-14	1.04	0.83	0.732	0.208	0.188	0.344	0.37	0.233	0.102	0.128	0.118	0.14	0.141	0.0777	1.04	0.973	0.862	0.929	0.335	0.978
NCI-H1299	1		1.04	1.04	0.954	0.983	0.85	0.99	0.974						1.1	1.09	1.07	1.12	1.12	
LK-2	1.15		0.816	0.327	0.941	0.949	0.747	0.553	0.433	0.318	0.464	0.265	0.221	0.151	1.27	1.6	1.24	0.958	0.656	1.17
NCI-H2009	1.14	1.11	1.17	0.955	0.691	0.752	0.65	0.689	0.732	1.09		1.06	1.06	1.01	1.2	1.29	1.17	1.25	1.05	1.16
SW 900					0.975	0.826	0.714	0.662	0.607	0.514	0.473	0.426	0.454	0.371	0.937	0.917		0.865	0.709	
NCI-H1650					0.867	0.712	0.717	0.652	0.796	0.381	0.348	0.31	0.314	0.325	1.1	1.29	0.744	0.657	0.602	
IA-LM	0.846	0.647	0.782	0.486	0.985	0.82	0.715	0.838	0.517						1.36	1.36	1.11	0.927	0.628	0.894
NCI-H1563	0.815	0.877	0.843	0.875						0.812	0.924	0.739	0.747	0.582	0.858	0.942	0.885	0.844	0.75	0.984
HCC-44	0.97	0.702	0.838	0.754	1.04	1.03	0.899	0.94	0.979	0.63	0.686	0.635	0.648	0.671						0.95
NCI-H2342					0.397	0.416	0.385	0.331	0.298	0.722	0.774	0.714	0.564	0.497	1.08	0.993	0.891	0.703	0.525	
ABC-1	1.16	0.726	0.904	0.384	0.835	0.979	0.946	0.631	0.489						1.16	1.12	0.689	0.954	0.466	1.04
NCI-H522					0.598	0.5	0.558	0.573	0.459	1	0.943	0.72	0.673	0.657						
NCI-H727	0.525		0.441	0.276	0.796	0.678		0.764	0.613						0.978	0.709	0.793	0.842	0.558	0.542
NCI-H1792		0.639	0.599	0.484	0.0369	0.65	0.376	0.257	0.174	0.826	1.16	0.716	0.812	0.538						0.803

From the supplement of paper PMC10307832
